Measured values published in PMC8550792, “Evolution of kinase polypharmacology across HSP90 drug discovery” (Cell Chemical Biology, 2021).

Tests used:
Experiment in all cases: biochemical
Assay type in all cases: biochemical
382 unique human kinases [1] = target: T1, 382 unique human kinases (Homo sapiens, UniProt Q8IW41); settings: MAPKAPK5/PRAK, compound at 10 uM, duplicate values; for remaining activity at 10 µM: read-out: % Enzyme Activity (relative to DMSO controls)
T1 construct: purchased Reaction Biology (HotSpot contract assay)
T1 sequence (Q8IW41 1-473): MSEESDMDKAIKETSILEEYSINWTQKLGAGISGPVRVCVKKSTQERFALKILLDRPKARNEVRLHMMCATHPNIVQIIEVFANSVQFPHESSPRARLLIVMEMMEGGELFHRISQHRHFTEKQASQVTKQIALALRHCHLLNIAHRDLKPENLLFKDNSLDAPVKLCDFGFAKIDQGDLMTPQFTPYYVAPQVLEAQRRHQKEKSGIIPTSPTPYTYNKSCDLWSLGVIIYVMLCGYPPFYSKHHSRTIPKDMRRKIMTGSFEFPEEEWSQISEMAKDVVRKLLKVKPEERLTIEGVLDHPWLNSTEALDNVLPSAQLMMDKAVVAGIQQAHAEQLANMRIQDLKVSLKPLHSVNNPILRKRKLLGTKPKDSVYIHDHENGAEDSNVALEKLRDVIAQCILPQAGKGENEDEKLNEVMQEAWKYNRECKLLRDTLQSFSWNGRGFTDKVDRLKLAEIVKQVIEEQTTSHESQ

382 unique human kinases [2] = target: T2, 382 unique human kinases (Homo sapiens, UniProt P48729); settings: kinase CK1a1, compound 10 uM; for remaining activity at 10 µM: read-out: % Enzyme Activity (relative to DMSO controls)
T2 construct: purchased Reaction Biology (HotSpot contract assay)

382 unique human kinases [3] = target: T3, 382 unique human kinases (Homo sapiens, UniProt Q9Y243, E17K); settings: AKT3 (E17K), 10 uM; for remaining activity at 10 µM: read-out: % Enzyme Activity (relative to DMSO controls)
T3 construct: purchased Reaction Biology (HotSpot contract assay)

382 unique human kinases [4] = target: T4, 382 unique human kinases (Homo sapiens, UniProt O14733); settings: kinase MKK7, compound 10 uM; for remaining activity at 10 µM: read-out: % Enzyme Activity (relative to DMSO controls)
T4 construct: purchased Reaction Biology (HotSpot contract assay)
T4 sequence (O14733 1-419): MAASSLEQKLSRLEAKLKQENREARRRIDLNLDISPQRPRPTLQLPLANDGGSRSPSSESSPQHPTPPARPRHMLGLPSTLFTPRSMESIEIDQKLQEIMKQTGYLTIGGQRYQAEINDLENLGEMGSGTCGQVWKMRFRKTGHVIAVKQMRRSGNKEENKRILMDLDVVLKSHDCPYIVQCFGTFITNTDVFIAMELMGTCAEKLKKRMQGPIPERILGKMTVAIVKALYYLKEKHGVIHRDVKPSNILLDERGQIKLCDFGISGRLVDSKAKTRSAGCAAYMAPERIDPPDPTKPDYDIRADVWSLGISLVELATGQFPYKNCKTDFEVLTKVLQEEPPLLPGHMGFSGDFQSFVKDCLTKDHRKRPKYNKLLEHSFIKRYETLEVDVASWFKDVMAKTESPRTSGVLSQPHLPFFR

382 unique human kinases [5] = target: T5, 382 unique human kinases (Homo sapiens, UniProt P53779); settings: JNK3, compound at 10 uM, duplicate values; for remaining activity at 10 µM: read-out: % Enzyme Activity (relative to DMSO controls)
T5 construct: purchased Reaction Biology (HotSpot contract assay)

382 unique human kinases [6] = target: T6, 382 unique human kinases (Homo sapiens, UniProt P05129); settings: kinase PKCg, compound 10 uM; for remaining activity at 10 µM: read-out: % Enzyme Activity (relative to DMSO controls)
T6 construct: purchased Reaction Biology (HotSpot contract assay)

382 unique human kinases [7] = target: T7, 382 unique human kinases (Homo sapiens, UniProt Q8N4C8); settings: MINK/MINK1, 10 uM; for remaining activity at 10 µM: read-out: % Enzyme Activity (relative to DMSO controls)
T7 construct: purchased Reaction Biology (HotSpot contract assay)

382 unique human kinases [8] = target: T8, 382 unique human kinases (Homo sapiens, UniProt P07949, A883F); settings: kinase RET (A883F), compound 10 uM; for remaining activity at 10 µM: read-out: % Enzyme Activity (relative to DMSO controls)
T8 construct: purchased Reaction Biology (HotSpot contract assay)

382 unique human kinases [9] = target: T9, 382 unique human kinases (Homo sapiens, UniProt Q9NY57); settings: kinase STK32B/YANK2, compound 10 uM; for remaining activity at 10 µM: read-out: % Enzyme Activity (relative to DMSO controls)
T9 construct: purchased Reaction Biology (HotSpot contract assay)

382 unique human kinases [10] = target: T10, 382 unique human kinases (Homo sapiens, UniProt Q9HBY8); settings: kinase SGK2, compound 10 uM; for remaining activity at 10 µM: read-out: % Enzyme Activity (relative to DMSO controls)
T10 construct: purchased Reaction Biology (HotSpot contract assay)
T10 sequence (Q9HBY8 1-367): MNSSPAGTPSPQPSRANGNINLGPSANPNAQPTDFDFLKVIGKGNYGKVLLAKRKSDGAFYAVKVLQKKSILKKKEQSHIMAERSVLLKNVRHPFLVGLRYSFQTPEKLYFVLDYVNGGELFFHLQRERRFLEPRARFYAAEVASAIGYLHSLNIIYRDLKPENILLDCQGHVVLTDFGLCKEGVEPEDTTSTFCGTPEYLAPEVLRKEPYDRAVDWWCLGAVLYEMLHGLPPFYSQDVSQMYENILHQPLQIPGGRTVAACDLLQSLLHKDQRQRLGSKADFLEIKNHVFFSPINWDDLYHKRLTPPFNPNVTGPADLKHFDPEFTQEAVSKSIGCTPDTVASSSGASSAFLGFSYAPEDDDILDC

382 unique human kinases [11] = target: T11, 382 unique human kinases (Homo sapiens, UniProt P35916); settings: FLT4/VEGFR3, [ATP] 5 µM, compound 10 uM; for remaining activity at 10 µM: read-out: % Enzyme Activity (relative to DMSO controls)
T11 construct: purchased Reaction Biology (HotSpot contract assay)

382 unique human kinases [12] = target: T12, 382 unique human kinases (Homo sapiens, UniProt Q9NQU5); settings: PAK6, 10 uM; for remaining activity at 10 µM: read-out: % Enzyme Activity (relative to DMSO controls)
T12 construct: purchased Reaction Biology (HotSpot contract assay)

382 unique human kinases [13] = target: T13, 382 unique human kinases (Homo sapiens, UniProt Q5S007, R1441C); settings: LRRK2 (R1441C), [ATP] 50 µM, compound 10 uM; for remaining activity at 10 µM: read-out: % Enzyme Activity (relative to DMSO controls)
T13 construct: purchased Reaction Biology (HotSpot contract assay)

382 unique human kinases [14] = target: T14, 382 unique human kinases (Homo sapiens, UniProt P51812, I416V); settings: RSK2 (I416V), [ATP] 10 µM, compound 10 uM; for remaining activity at 10 µM: read-out: % Enzyme Activity (relative to DMSO controls)
T14 construct: purchased Reaction Biology (HotSpot contract assay)

382 unique human kinases [15] = target: T15, 382 unique human kinases (Homo sapiens, UniProt Q14012); settings: CAMK1a, 10 uM; for remaining activity at 10 µM: read-out: % Enzyme Activity (relative to DMSO controls)
T15 construct: purchased Reaction Biology (HotSpot contract assay)

382 unique human kinases [16] = target: T16, 382 unique human kinases (Homo sapiens, UniProt Q13177); settings: PAK2, 10 uM; for remaining activity at 10 µM: read-out: % Enzyme Activity (relative to DMSO controls)
T16 construct: purchased Reaction Biology (HotSpot contract assay)

T11 sequence (P35916 25-1363): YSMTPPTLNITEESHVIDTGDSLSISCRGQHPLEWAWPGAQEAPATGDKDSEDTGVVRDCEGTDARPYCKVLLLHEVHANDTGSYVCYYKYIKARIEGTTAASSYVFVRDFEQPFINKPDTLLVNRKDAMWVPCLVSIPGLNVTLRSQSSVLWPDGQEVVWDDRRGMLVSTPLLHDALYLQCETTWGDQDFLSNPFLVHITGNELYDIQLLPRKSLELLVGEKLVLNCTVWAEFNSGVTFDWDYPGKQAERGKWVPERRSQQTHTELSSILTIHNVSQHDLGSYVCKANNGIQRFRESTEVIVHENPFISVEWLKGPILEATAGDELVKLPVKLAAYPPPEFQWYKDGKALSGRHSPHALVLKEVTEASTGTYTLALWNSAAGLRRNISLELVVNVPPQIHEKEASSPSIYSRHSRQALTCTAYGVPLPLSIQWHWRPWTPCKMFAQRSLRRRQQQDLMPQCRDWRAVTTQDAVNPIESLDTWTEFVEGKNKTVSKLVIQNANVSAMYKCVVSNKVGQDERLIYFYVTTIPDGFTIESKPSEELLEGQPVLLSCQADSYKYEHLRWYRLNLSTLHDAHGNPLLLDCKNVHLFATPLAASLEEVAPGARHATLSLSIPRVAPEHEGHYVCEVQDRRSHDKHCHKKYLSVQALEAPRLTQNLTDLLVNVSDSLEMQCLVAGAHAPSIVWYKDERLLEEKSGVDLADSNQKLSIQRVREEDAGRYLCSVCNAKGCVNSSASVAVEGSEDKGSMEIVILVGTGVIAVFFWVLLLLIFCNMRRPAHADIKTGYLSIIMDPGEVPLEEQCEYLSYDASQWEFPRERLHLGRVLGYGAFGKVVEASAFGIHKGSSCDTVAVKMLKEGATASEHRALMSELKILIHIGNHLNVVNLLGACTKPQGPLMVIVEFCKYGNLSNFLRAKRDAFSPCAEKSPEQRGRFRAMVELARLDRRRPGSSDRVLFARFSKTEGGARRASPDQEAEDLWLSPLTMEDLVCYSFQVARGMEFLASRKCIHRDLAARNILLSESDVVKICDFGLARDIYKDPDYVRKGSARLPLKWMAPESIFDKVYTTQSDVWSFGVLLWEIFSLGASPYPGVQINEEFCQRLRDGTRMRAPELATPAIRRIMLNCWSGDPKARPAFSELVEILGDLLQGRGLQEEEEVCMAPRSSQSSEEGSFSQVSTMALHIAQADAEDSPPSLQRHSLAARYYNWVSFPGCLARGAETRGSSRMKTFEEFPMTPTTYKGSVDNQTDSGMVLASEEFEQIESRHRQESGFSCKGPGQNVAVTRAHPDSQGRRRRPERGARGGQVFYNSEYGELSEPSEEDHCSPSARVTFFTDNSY
T5 sequence (P53779 whole entry): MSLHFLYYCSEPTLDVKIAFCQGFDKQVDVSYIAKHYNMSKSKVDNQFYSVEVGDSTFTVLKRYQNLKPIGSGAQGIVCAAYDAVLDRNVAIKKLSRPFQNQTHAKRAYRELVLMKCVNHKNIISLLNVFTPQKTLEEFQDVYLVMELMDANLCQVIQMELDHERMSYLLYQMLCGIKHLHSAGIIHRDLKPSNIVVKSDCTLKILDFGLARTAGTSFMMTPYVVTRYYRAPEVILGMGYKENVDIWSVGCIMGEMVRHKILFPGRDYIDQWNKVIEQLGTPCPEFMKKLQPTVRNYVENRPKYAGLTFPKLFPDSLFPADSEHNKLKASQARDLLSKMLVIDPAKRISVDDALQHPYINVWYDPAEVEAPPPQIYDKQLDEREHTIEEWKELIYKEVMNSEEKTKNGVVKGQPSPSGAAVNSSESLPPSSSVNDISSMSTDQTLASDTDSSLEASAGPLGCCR
T12 sequence (Q9NQU5 whole entry): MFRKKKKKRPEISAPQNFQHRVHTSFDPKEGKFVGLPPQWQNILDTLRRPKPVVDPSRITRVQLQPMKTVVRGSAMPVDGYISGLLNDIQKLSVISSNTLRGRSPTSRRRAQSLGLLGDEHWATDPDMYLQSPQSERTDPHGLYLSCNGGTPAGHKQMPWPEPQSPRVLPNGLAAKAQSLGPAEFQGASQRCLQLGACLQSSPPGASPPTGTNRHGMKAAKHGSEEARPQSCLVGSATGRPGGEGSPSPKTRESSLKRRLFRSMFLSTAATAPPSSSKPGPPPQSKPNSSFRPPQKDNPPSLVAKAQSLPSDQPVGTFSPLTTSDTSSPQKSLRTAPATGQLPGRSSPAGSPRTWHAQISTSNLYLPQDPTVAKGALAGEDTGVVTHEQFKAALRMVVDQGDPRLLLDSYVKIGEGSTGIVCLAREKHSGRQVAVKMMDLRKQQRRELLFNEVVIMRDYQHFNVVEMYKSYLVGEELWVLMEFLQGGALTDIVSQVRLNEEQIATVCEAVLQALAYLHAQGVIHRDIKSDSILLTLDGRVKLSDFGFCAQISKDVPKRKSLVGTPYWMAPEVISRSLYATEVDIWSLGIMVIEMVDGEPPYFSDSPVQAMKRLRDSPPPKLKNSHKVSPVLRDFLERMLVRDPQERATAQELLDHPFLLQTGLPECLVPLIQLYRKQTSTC
T13 sequence (Q5S007 whole entry R1441C): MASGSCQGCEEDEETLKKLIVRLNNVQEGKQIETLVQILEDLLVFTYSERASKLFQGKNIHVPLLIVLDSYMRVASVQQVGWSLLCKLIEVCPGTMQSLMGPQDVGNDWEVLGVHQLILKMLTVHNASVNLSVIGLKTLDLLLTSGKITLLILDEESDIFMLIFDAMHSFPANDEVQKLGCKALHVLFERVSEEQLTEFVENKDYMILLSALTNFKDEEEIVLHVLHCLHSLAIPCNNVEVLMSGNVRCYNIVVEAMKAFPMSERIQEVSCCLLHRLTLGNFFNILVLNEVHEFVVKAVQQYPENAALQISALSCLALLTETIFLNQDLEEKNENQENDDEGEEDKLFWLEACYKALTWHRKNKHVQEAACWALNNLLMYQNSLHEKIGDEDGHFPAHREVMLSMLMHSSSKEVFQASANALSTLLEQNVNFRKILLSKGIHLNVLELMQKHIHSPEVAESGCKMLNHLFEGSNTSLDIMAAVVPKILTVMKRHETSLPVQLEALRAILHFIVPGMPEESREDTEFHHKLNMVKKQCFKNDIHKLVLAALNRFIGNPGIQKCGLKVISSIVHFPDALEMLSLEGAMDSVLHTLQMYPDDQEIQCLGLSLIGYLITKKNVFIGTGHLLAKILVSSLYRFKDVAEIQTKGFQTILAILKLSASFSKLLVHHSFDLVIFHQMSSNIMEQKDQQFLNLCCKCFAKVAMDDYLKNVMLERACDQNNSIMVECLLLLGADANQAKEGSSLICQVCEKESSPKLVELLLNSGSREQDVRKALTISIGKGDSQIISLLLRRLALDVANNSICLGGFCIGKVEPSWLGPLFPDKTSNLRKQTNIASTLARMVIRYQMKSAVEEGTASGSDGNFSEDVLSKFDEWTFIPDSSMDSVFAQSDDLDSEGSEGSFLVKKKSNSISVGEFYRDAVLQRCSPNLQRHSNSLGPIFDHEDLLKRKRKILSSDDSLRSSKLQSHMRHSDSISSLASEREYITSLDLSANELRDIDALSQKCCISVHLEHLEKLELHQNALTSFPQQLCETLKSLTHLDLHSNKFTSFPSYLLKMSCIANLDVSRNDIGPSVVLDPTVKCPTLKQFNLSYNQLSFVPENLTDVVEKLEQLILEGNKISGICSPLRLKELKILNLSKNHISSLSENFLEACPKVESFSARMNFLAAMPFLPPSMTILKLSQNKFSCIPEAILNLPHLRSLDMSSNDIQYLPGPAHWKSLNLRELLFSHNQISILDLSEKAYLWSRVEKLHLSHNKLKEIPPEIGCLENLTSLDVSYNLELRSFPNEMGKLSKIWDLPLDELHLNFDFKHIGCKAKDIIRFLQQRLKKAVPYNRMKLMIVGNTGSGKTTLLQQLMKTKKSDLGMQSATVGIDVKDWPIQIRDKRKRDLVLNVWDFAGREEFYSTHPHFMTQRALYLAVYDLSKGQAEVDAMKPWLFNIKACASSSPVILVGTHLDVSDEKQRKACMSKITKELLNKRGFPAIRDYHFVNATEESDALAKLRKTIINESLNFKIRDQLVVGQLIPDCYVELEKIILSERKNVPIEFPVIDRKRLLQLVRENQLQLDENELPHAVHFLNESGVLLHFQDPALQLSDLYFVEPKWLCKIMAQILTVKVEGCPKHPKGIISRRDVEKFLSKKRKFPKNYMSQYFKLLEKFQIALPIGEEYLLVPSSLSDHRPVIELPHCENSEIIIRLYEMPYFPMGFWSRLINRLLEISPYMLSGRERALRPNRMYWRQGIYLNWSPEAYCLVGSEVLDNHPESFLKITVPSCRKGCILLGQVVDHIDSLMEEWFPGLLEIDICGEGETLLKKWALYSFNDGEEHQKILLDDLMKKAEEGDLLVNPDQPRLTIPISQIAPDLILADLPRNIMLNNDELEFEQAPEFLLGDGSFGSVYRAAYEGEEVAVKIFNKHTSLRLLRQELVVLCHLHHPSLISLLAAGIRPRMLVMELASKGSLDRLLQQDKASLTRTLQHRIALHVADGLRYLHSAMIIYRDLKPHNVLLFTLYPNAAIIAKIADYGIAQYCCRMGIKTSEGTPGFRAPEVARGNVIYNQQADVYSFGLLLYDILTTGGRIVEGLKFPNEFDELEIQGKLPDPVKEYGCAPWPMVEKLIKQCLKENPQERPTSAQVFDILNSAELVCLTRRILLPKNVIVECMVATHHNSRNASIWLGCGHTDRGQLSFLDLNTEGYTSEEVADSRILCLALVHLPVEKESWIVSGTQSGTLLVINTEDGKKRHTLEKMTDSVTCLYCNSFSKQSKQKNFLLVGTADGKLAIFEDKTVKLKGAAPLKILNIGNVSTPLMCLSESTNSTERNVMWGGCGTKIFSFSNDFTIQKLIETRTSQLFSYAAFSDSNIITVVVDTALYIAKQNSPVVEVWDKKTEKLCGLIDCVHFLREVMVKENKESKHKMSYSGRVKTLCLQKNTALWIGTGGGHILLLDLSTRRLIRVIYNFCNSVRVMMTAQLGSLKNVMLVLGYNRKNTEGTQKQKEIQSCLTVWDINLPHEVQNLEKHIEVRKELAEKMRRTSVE

Structure (SMILES) | remaining activity at 10 µM (382 unique human kinases [1]) | remaining activity at 10 µM (382 unique human kinases [2]) | remaining activity at 10 µM (382 unique human kinases [3]) | remaining activity at 10 µM (382 unique human kinases [4]) | remaining activity at 10 µM (382 unique human kinases [5]) | remaining activity at 10 µM (382 unique human kinases [6]) | remaining activity at 10 µM (382 unique human kinases [7]) | remaining activity at 10 µM (382 unique human kinases [8]) | remaining activity at 10 µM (382 unique human kinases [9]) | remaining activity at 10 µM (382 unique human kinases [10]) | remaining activity at 10 µM (382 unique human kinases [11]) | remaining activity at 10 µM (382 unique human kinases [12]) | remaining activity at 10 µM (382 unique human kinases [13]) | remaining activity at 10 µM (382 unique human kinases [14]) | remaining activity at 10 µM (382 unique human kinases [15]) | remaining activity at 10 µM (382 unique human kinases [16]) | also measured
CC(C)c1cc(-c2n[nH]c(=O)n2-c2ccc3c(ccn3C)c2)c(O)cc1O [Ganetespib (STA9090)] | 102% | 84.4% | 77.7% | 80.9% | 118% | 91.3% | 73.6% | 83.7% | 107% | 85.5% |  |  |  |  |  |  | 
CC(C)c1cc(-c2n[nH]c(=O)n2-c2ccc3c(ccn3C)c2)c(O)cc1O [Ganetespib] |  |  |  |  |  |  |  |  |  |  | 47.4% | 106% | 50.7% | 56.7% | 91.4% | 99.6% | 
CCNC(=O)c1noc(-c2cc(C(C)C)c(O)cc2O)c1-c1ccc(CN2CCOCC2)cc1 [Luminespib (AUY-922)] | 104% | 101% | 84.2% | 105% | 107% | 99.7% | 86.4% | 96.4% | 88.8% | 110% |  |  |  |  |  |  | % Enzyme Activity (relative to DMSO controls) (382 unique human kinases [1]): 101.76%; % Enzyme Activity (relative to DMSO controls) (382 unique human kinases [2]): 96.26%; % Enzyme Activity (relative to DMSO controls) (382 unique human kinases [3]): 79.36%; % Enzyme Activity (relative to DMSO controls) (382 unique human kinases [4]): 102.48%; % Enzyme Activity (relative to DMSO controls) (382 unique human kinases [5]): 106.79%; % Enzyme Activity (relative to DMSO controls) (382 unique human kinases [6]): 97.02%; % Enzyme Activity (relative to DMSO controls) (382 unique human kinases [7]): 85.21%; % Enzyme Activity (relative to DMSO controls) (382 unique human kinases [8]): 95.34%; % Enzyme Activity (relative to DMSO controls) (382 unique human kinases [9]): 88.50%; % Enzyme Activity (relative to DMSO controls) (382 unique human kinases [10]): 108.05%
CCNC(=O)c1noc(-c2cc(C(C)C)c(O)cc2O)c1-c1ccc(CN2CCOCC2)cc1 [Luminespib] |  |  |  |  |  |  |  |  |  |  | 96% | 97.2% | 88.8% | 88.9% | 109% | 99.3% | % Enzyme Activity (relative to DMSO controls) (382 unique human kinases [11]): 95.96%; % Enzyme Activity (relative to DMSO controls) (382 unique human kinases [12]): 95.70%; % Enzyme Activity (relative to DMSO controls) (382 unique human kinases [13]): 88.51%; % Enzyme Activity (relative to DMSO controls) (382 unique human kinases [14]): 87.06%; % Enzyme Activity (relative to DMSO controls) (382 unique human kinases [15]): 103.58%; % Enzyme Activity (relative to DMSO controls) (382 unique human kinases [16]): 99.27%
